Reference: patent US11076595B2, “1-(n,n-disubstituted carbamoyl) 4-(substituted sulfonyl)triazolin-5-one derivative, 4-(n,n-disubstituted carbamoyl) 1-(substituted sulfonyl)triazolin-5-one derivative, and herbicide containing said derivative as active ingredient” (HOKKO CHEMICAL INDUSTRY CO., LTD., priority 2017, dated 2021)

Key:
Type in all cases: in vivo
Scirpus juncoides [1] = assay: Test Example 11: herbicidal effect test by soil treatment in paddy field; conditions: 120 g/10a active ingredient, 14 days after treatment
Summary of the method: (§1)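 Dry weight at day 14 relative to untreated controls gives the suppression rate; duplicate pots. Treatment: 120 g a.i./10 are into paddy water at sowing.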

Echinochloa crus-galli [2] = assay: as above; conditions: 120 g/10a active ingredient, 14 days after treatment
Summary of the method: as §1

Monochoria vaginalis [3] = assay: as above; conditions: 120 g/10a active ingredient, 14 days after treatment
Summary of the method: as §1

Lindernia pyxidaria [4] = assay: as above; conditions: 120 g/10a active ingredient, 14 days after treatment
Summary of the method: as §1

Chenopodium album [5] = assay: Test Example 14: herbicidal effect test by foliage treatment in upland field; conditions: 7 days after sowing, 120 g/10a, 14 days after treatment
Summary of the method: (§2)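 Post-sowing spray at day 7, 120 g a.i./10 are in 100 L water/10 are; alluvial soil pots, duplicate plots; endpoint day 14, % suppression from dry weight relative to untreated.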

crabgrass [6] = assay: as above; conditions: 7 days after sowing, 120 g/10a, 14 days after treatment
Summary of the method: as §2

Amaranthus viridis [7] = assay: Test Example 13: herbicidal effect test by soil treatment in upland field; conditions: 120 g/10a, 14 days after treatment
Summary of the method: (§3)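 Soil-applied emulsifiable concentrate at 120 g active ingredient per 10 are, sprayed one day after seeding into alluvial soil pots. Dry-weight-based suppression scored at 14 days; two replications.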

Echinochloa crus-galli [8] = assay: as above; conditions: 120 g/10a, 14 days after treatment
Summary of the method: as §3

Chenopodium album [9] = assay: as above; conditions: 120 g/10a, 14 days after treatment
Summary of the method: as §3

crabgrass [10] = assay: as above; conditions: 120 g/10a, 14 days after treatment
Summary of the method: as §3

Amaranthus viridis [11] = assay: Test Example 14: herbicidal effect test by foliage treatment in upland field; conditions: 7 days after sowing, 120 g/10a, 14 days after treatment
Summary of the method: as §2

Echinochloa crus-galli [12] = assay: as above; conditions: 7 days after sowing, 120 g/10a, 14 days after treatment
Summary of the method: as §2

Scirpus juncoides [13] = assay: Test Example 12: herbicidal effect test by treatment during growing period in paddy field; conditions: 120 g/10a; treatment seven days after sowing in flooded paddy pot; assessed 14 days after treatment
Summary of the method: (§4)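 Seeds (30 per species) are sown shallowly into fertilized, puddled paddy soil kept under ~3 cm of water in a greenhouse. One week later, compound formulated as an emulsifiable concentrate is applied dropwise to the water at 120 g a.i./10 are. After 14 days, dry weights give percent suppression against untreated controls.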

Echinochloa crus-galli [14] = assay: as above; conditions: 120 g/10a; treatment seven days after sowing in flooded paddy pot; assessed 14 days after treatment
Summary of the method: as §4

Monochoria vaginalis [15] = assay: as above; conditions: 120 g/10a; treatment seven days after sowing in flooded paddy pot; assessed 14 days after treatment
Summary of the method: as §4

Lindernia pyxidaria [16] = assay: as above; conditions: 120 g/10a; treatment seven days after sowing in flooded paddy pot; assessed 14 days after treatment
Summary of the method: as §4

Row | SMILES | Weed suppression rate (%) Scirpus juncoides (Scirpus juncoides [1]) [%] | Weed suppression rate (%) Echinochloa crus-galli (Echinochloa crus-galli [2]) [%] | Weed suppression rate (%) Monochoria vaginalis (Monochoria vaginalis [3]) [%] | Weed suppression rate (%) Lindemia pyxidaria (Lindernia pyxidaria [4]) [%] | herbicidal effect, Chenopodium album (Chenopodium album [5]) [%] | herbicidal effect, Crabgrass (crabgrass [6]) [%] | herbicidal effect, Amaranthus viridis (Amaranthus viridis [7]) [%] | herbicidal effect, Echinochloa crus-galli (Echinochloa crus-galli [8]) [%] | herbicidal effect, Chenopodium album (Chenopodium album [9]) [%] | herbicidal effect, Crabgrass (crabgrass [10]) [%] | herbicidal effect, Amaranthus viridis (Amaranthus viridis [11]) [%] | herbicidal effect, Echinochloa crus-galli (Echinochloa crus-galli [12]) [%] | Weed suppression rate (%) Scirpus juncoides (Scirpus juncoides [13]) [%] | Weed suppression rate (%) Echinochloa crus-galli (Echinochloa crus-galli [14]) [%] | Weed suppression rate (%) Monochoria vaginalis (Monochoria vaginalis [15]) [%] | Weed suppression rate (%) Lindemia pyxidaria (Lindernia pyxidaria [16]) [%]
1 | CC(C)N(C(=O)n1cnn(S(C)(=O)=O)c1=O)c1c(F)cc(F)cc1F [Compound 11-16] | 90 | 100 | 90 | 100 | 70 | 100 | 100 | 100 | 70 | 100 | 30 | 100 | 100 | 100 | 100 | 90
2 | CC(C)N(C(=O)n1cnn(S(=O)(=O)c2ccc(C(C)(C)C)cc2)c1=O)c1ccc(Cl)cn1 [Compound 11-706] | 90 | 100 | 80 | 100 | 40 | 50 | 50 | 80 | 50 | 80 | 70 | 0 | 70 | 80 | 80 | 80
3 | CC(C)N(C(=O)n1cnn(S(=O)(=O)C2CCCC2)c1=O)c1ccc(F)cc1F [Compound 11-273] | 90 | 100 | 90 | 100 | 80 | 90 | 60 | 90 | 90 | 100 | 90 | 80 | 90 | 100 | 90 | 90
4 | Cc1ccc(S(=O)(=O)n2ncn(C(=O)N(c3ccc(F)cc3Cl)C(C)C)c2=O)cc1 [Compound 11-644] | 90 | 90 | 80 | 80 | 80 | 90 | 90 | 80 | 80 | 90 | 90 | 80 | 90 | 90 | 80 | 80
5 | CC(C)N(C(=O)n1cnn(S(=O)(=O)c2ccc(F)cc2)c1=O)c1ccc(F)cc1F [Compound 11-475] | 90 | 100 | 90 | 90 | 40 | 90 | 80 | 100 | 90 | 100 | 40 | 70 | 90 | 90 | 90 | 90
